ChEMBL document CHEMBL1201862, “PubChem BioAssay data set” (2004)
Values joined by “and” are separate entries in the source; they are usually repeats but may differ in a detail not shown here. Equal values may be shown once.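 Five compound concentrations were applied to cells in 96-well plates for 48 hours; endpoints were derived by simple linear interpolation of the resulting dose-response curve. GI50 = concentration required for 50% inhibition of growth.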 Active and inactive are the calls of the source. No stated cut-off is given here; in the data, active = GI50 up to about 1.1 µM and inactive = higher.

Assays:
Experiment in all cases: NCI anticancer screen, dose series, 48 h
[1] = system: SF-268
[2] = system: U-251
[3] = system: M14
[4] = system: DMS-114
[5] = system: HOP-18
[6] = system: SK-MEL-2
[7] = system: MOLT-4
[8] = system: RPMI-8226
[9] = system: 786-0
[10] = system: SNB-78
[11] = system: K562
[12] = system: HCT-15
[13] = system: IGROV-1
[14] = system: HOP-62
[15] = system: NCI/ADR-RES
[16] = system: SF-539
[17] = system: HL-60
[18] = system: Hs-578T
[19] = system: COLO 205
[20] = system: KM-20L2
[21] = system: SNB-75
[22] = system: HOP-92
[23] = system: UACC-257
[24] = system: SNB-19
[25] = system: SR
[26] = system: UACC-62
[27] = system: OVCAR-8
[28] = system: SK-OV-3
[29] = system: MCF7
[30] = system: CCRF-CEM
[31] = system: SF-295
[32] = system: PC-3
[33] = system: EKVX
[34] = system: DU-145
[35] = system: ACHN
[36] = system: NCI-H522
[37] = system: HT-29
[38] = system: A498
[39] = system: SK-MEL-28
[40] = system: TK-10
[41] = system: UO-31
[42] = system: RXF 393
[43] = system: OVCAR-5
[44] = system: NCI-H460
[45] = system: M19-MEL
[46] = system: A549
[47] = system: DMS-273
[48] = system: NCI-H226
[49] = system: NCI-H23
[50] = system: KM12
[51] = system: HCT-116
[52] = system: Malme-3M
[53] = system: SN12C
[54] = system: SW-620
[55] = system: LXFL 529
[56] = system: CAKI-1
[57] = system: SK-MEL-5
[58] = system: OVCAR-4
[59] = system: HCC 2998
[60] = system: LOX IMVI
[61] = system: OVCAR-3
[62] = system: DLD-1

With `Cc1ccc(C)c(NC(=O)CC2Sc3ccccc3NC2=O)c1` (stereo not drawn) the GI50 [1] was 14.7 µM (inactive) and 26.2 µM (inactive), the GI50 [2] was 15 µM (inactive) and 27 µM (inactive) and the GI50 [3] was 51.3 µM (inactive). For the same molecule, the GI50 [4] was 49.5 µM (inactive) and 30.3 µM (inactive), the GI50 [5] was 25.1 µM (inactive) and 16.7 µM (inactive) and the GI50 [6] was 30.1 µM (inactive) and 50.8 µM (inactive). The GI50 [7] was > 56.2 µM (inactive) and > 77.3 µM (inactive), the GI50 [8] was > 100 µM (inactive) and 53 µM (inactive) and the GI50 [9] was 18.3 µM (inactive) and 25.2 µM (inactive). For the same molecule, the GI50 [10] was 14.5 µM (inactive) and 23.1 µM (inactive), the GI50 [11] was > 56.2 µM (inactive) and 68.5 µM (inactive) and the GI50 [12] was 38.7 µM and 61 µM. The GI50 [13] was 20.8 µM (inactive) and 35.7 µM (inactive), the GI50 [14] was 20.7 µM (inactive) and 17.6 µM (inactive) and the GI50 [15] was > 49 µM (inactive). The GI50 [16] was 33.7 µM (inactive) and 29.4 µM (inactive), the GI50 [17] was > 96.4 µM (inactive) and > 56.2 µM (inactive) and the GI50 [18] was 22.6 µM (inactive). For the same molecule, the GI50 [19] was > 100 µM (inactive), the GI50 [20] was > 100 µM (inactive) and > 96.8 µM (inactive) and the GI50 [21] was 10.7 µM (inactive) and 10.4 µM (inactive). For the same molecule, the GI50 [22] was 19.1 µM (inactive) and 11.9 µM (inactive), the GI50 [23] was 34.2 µM (inactive) and > 67 µM (inactive) and the GI50 [24] was 19.8 µM (inactive) and 32.7 µM (inactive). For the same molecule, the GI50 [25] was > 46.5 µM (inactive) and 27.8 µM (inactive), the GI50 [26] was 68.9 µM (inactive) and > 85.5 µM (inactive) and the GI50 [27] was 15.5 µM (inactive) and 18.6 µM (inactive). The GI50 [28] was 21.2 µM (inactive) and 22.7 µM (inactive), the GI50 [29] was > 95.5 µM (inactive) and 62.4 µM (inactive) and the GI50 [30] was > 56.2 µM (inactive) and > 86.3 µM (inactive). The GI50 [31] was 27.9 µM (inactive) and 50.1 µM (inactive), the GI50 [32] was > 89.7 µM (inactive) and 79.3 µM (inactive) and the GI50 [33] was 75.7 µM (inactive) and > 70.5 µM (inactive). The GI50 [34] was > 100 µM (inactive) and > 74.1 µM (inactive).
In the case of `NC(CCCC(N)P(=O)(O)O)C(=O)O` (stereo not drawn), the GI50 [1] is reported as > 100 µM (inactive), the GI50 [2] is reported as > 100 µM (inactive) and the GI50 [35] is reported as > 100 µM (inactive). The GI50 [36] was > 100 µM (inactive), the GI50 [3] was > 100 µM (inactive) and the GI50 [37] was > 100 µM (inactive). For the same molecule, the GI50 [38] was > 100 µM (inactive), the GI50 [4] was > 100 µM (inactive) and the GI50 [39] was > 100 µM (inactive). For the same molecule, the GI50 [40] was > 100 µM (inactive), the GI50 [7] was > 100 µM (inactive) and the GI50 [41] was > 100 µM (inactive). The GI50 [10] was > 100 µM (inactive), the GI50 [42] was > 100 µM (inactive) and the GI50 [43] was > 100 µM (inactive). The GI50 [44] was > 100 µM (inactive), the GI50 [45] was > 100 µM (inactive) and the GI50 [13] was > 100 µM (inactive). The GI50 [14] was > 100 µM (inactive), the GI50 [17] was > 100 µM (inactive) and the GI50 [20] was > 100 µM (inactive). The GI50 [46] was > 10 µM (inactive), the GI50 [22] was > 100 µM (inactive) and the GI50 [23] was > 100 µM (inactive). For the same molecule, the GI50 [24] was > 100 µM (inactive), the GI50 [47] was > 100 µM (inactive) and the GI50 [48] was > 100 µM (inactive). For the same molecule, the GI50 [25] was > 100 µM (inactive), the GI50 [26] was > 100 µM (inactive) and the GI50 [27] was > 100 µM (inactive). The GI50 [28] was > 100 µM (inactive), the GI50 [30] was > 100 µM (inactive) and the GI50 [31] was > 100 µM (inactive). For the same molecule, the GI50 [49] was > 100 µM (inactive), the GI50 [33] was > 100 µM (inactive) and the GI50 [50] was > 100 µM (inactive). For the same molecule, the GI50 [51] was > 100 µM (inactive).
For `CCOC(=O)CC(NC(=O)c1nc[nH]c1/N=N/N(C)C)C(=O)OCC` (stereo not drawn), the GI50 [1] was > 100 µM (inactive), the GI50 [2] was > 100 µM (inactive) and the GI50 [35] was > 100 µM (inactive). For the same molecule, the GI50 [36] was > 100 µM (inactive), the GI50 [3] was > 100 µM (inactive) and the GI50 [37] was > 100 µM (inactive). The GI50 [38] was > 100 µM (inactive), the GI50 [4] was > 100 µM (inactive) and the GI50 [39] was > 100 µM (inactive). The GI50 [40] was > 100 µM (inactive), the GI50 [6] was > 100 µM (inactive) and the GI50 [7] was > 100 µM (inactive). For the same molecule, the GI50 [52] was > 100 µM (inactive), the GI50 [53] was > 100 µM (inactive) and the GI50 [54] was > 100 µM (inactive). The GI50 [8] was > 100 µM (inactive), the GI50 [41] was > 100 µM (inactive) and the GI50 [9] was > 100 µM (inactive). The GI50 [43] was > 100 µM (inactive), the GI50 [11] was > 100 µM (inactive) and the GI50 [44] was > 100 µM (inactive). For the same molecule, the GI50 [12] was > 100 µM, the GI50 [45] was > 100 µM (inactive) and the GI50 [13] was > 100 µM (inactive). The GI50 [14] was > 100 µM (inactive), the GI50 [16] was > 100 µM (inactive) and the GI50 [17] was > 100 µM (inactive). For the same molecule, the GI50 [55] was > 100 µM (inactive), the GI50 [56] was > 100 µM (inactive) and the GI50 [19] was > 100 µM (inactive). The GI50 [57] was > 100 µM (inactive), the GI50 [58] was > 100 µM (inactive) and the GI50 [21] was > 100 µM (inactive). The GI50 [46] was > 100 µM (inactive), the GI50 [59] was > 100 µM (inactive) and the GI50 [23] was > 100 µM (inactive). For the same molecule, the GI50 [60] was > 100 µM (inactive), the GI50 [24] was > 100 µM (inactive) and the GI50 [47] was > 100 µM (inactive). The GI50 [48] was > 100 µM (inactive), the GI50 [25] was > 100 µM (inactive) and the GI50 [26] was > 100 µM (inactive). The GI50 [61] was > 100 µM (inactive), the GI50 [27] was > 100 µM (inactive) and the GI50 [28] was > 100 µM (inactive). For the same molecule, the GI50 [30] was > 100 µM (inactive), the GI50 [31] was > 100 µM (inactive) and the GI50 [62] was > 100 µM (inactive). The GI50 [49] was > 100 µM (inactive), the GI50 [33] was > 100 µM (inactive) and the GI50 [50] was > 100 µM (inactive). For the same molecule, the GI50 [51] was > 100 µM (inactive).
